Reference: article PMC3316526, “Modulation of γ-Secretase Activity by Multiple Enzyme-Substrate Interactions: Implications in Pathogenesis of Alzheimer's Disease” (PLoS ONE, 2012)
Values belong to the molecule of their own block, whether it stands above or below them.

What was measured:
[1] = target: T1, γ-secretase carrying WT presenilin 1 (Homo sapiens, UniProt P49768); experiment: Inhibition of total AICD production, CHAPSO enriched γ-secretase membranes, WT presenilin 1; format: biochemical; conditions: best fit ± standard error, eqn. 3; for IC50: total AICD production, western blot
T1 construct: expressed in transfected cells; host or cells: MEF double knockout for endogenous presenilin, transduced; CHAPSO-solubilised microsomal membranes
Description: (§1) Figure 9 Inhibition of WT presenilin 1 and FAD mutants by DAPT and L-685,458. CHAPSO enriched γ-secretase membranes carrying WT presenilin 1 or FAD mutations ΔE9 and G384A have been prepared and analyzed in parallel with all conditions identical. The dose response curves for DAPT [71] and L-685,458 [15] were measured by following total AICD production using western-blots with αM2 antiflag antibody as shown in Fig. 3. The results were analyzed using nonlinear regression and the equation 3 (methods).
(§2) MEF cells, or MEF double knockout for endogenous presenilin transduced with human WT, dE9 and G384A presenilin 1 [85], were grown to confluence, scraped, and collected in pellets by centrifugation at 1000×g for 5 min. The cell pellets were re-suspended in 20 mM Pipes pH = 7.0, 140 mM KCl, 0.25 M sucrose, 5 mM EGTA, plus 1X Roche protease inhibitors cocktail, so that the total protein concentration was 10 mg/ml. Re-suspended cells were subjected to more than 20 passages in 8.010 mm cell-cracker. The resulting cell extract was subjected to 10 min centrifugation on 2000×g to remove large debris, and the fragmented membranes were collected as pellets after centrifugation for 1 hour at 100 000×g, and stored at −80°C.
(§3) γ-Secretase assays using CHAPSO enriched membranes were performed essentially as earlier described, [37], [48], [89]. Briefly, microsomal fractions (protein concentration 10 mg/ml) from different MEF cells were solubilized in 1% CHAPSO buffer (50 mM Pipes, pH 7.0, 0.25 M sucrose, 1 mM EGTA, 1×Complete protease inhibitor mixture (Roche)) and incubated on ice for 1 h. CHAPSO was always prepared as 1% w/v fresh from a powder stock that was less than 6 months old and kept at 4°C (freshness is crucial for high activity). Next, the membrane-solubilized protein fractions were obtained as supernatant by ultracentrifugation for 1 hour at 100,000×g. The prepared CHAPSO enriched membranes were diluted two fold with 50 mM Pipes pH = 7.0, 0.25 M sucrose, 1 mM EGTA, 0.1% phosphatidylcholine, and 0.0125% phosphatidylethanolamine, plus 1×Complete protease inhibitor mixture (Roche), and left on 37°C for two to three hours. This incubation can increase the measured activity by up to 70% since it can accommodate slow reassembly of γ-secretase components that is induced by the transition from 1% CHAPSO to 0.25% CHAPSO [90]. The reactions were started by adding C99 substrate in desired concentration, the added volume was adjusted so that: i) the final CHAPSO concentration was 0.25%; ii) and final concentration of membrane proteins was 0.25 mg/ml. Fresh C99 substrate that is used immediately after purification gives the best opportunity to observe described enzymatic features and the highest activity. […]

[2] = tested on: γ-secretase carrying presenilin 1 FAD mutation ΔE9; experiment: Inhibition of total AICD production, CHAPSO enriched γ-secretase membranes, FAD mutant ΔE9; format: biochemical, human; conditions: for Hill's coef. / IC50: ΔE9 presenilin 1, best fit ± standard error, eqn. 3; for IC50: total AICD production, western blot; for decrease in inhibition potency relative to the WT: ΔE9 vs WT presenilin 1
Description: as §1, §2
(§4) γ-Secretase assays using CHAPSO enriched membranes were performed essentially as earlier described, [37], [48], [89]. Briefly, microsomal fractions (protein concentration 10 mg/ml) from different MEF cells were solubilized in 1% CHAPSO buffer (50 mM Pipes, pH 7.0, 0.25 M sucrose, 1 mM EGTA, 1×Complete protease inhibitor mixture (Roche)) and incubated on ice for 1 h. CHAPSO was always prepared as 1% w/v fresh from a powder stock that was less than 6 months old and kept at 4°C (freshness is crucial for high activity). Next, the membrane-solubilized protein fractions were obtained as supernatant by ultracentrifugation for 1 hour at 100,000×g. The prepared CHAPSO enriched membranes were diluted two fold with 50 mM Pipes pH = 7.0, 0.25 M sucrose, 1 mM EGTA, 0.1% phosphatidylcholine, and 0.0125% phosphatidylethanolamine, plus 1×Complete protease inhibitor mixture (Roche), and left on 37°C for two to three hours. This incubation can increase the measured activity by up to 70% since it can accommodate slow reassembly of γ-secretase components that is induced by the transition from 1% CHAPSO to 0.25% CHAPSO [90]. The reactions were started by adding C99 substrate in desired concentration, the added volume was adjusted so that: i) the final CHAPSO concentration was 0.25%; ii) and final concentration of membrane proteins was 0.25 mg/ml. Fresh C99 substrate that is used immediately after purification gives the best opportunity to observe described enzymatic features and the highest activity. The assay mix was prepared in low adhesion microcentrifuge tubes, the volume was usually 25 µL. To increase sensitivity in early data points detection, and at low enzyme saturation, the assay volume was increased up to 400 µL, and the resulting reaction products were concentrated by immunoprecipitation before the gels were loaded. The reaction mix was incubated at 37°C, the time was optimized for each experiment. The AICD production remains linear for 6 hours at saturating substrate. The reaction specificity was confirmed by running identical parallel reactions that have been saturated with inhibitors specific for γ-secretase; 10 µM LY-411,575 and 10 µM DAPT [3], [4].
(§5) AICD assays using western-blots with anti-flag αM2 monoclonal antibody, or 125-I labelled C99 autoradiography were performed as earlier described, [37]. To keep the C99 bands visible on gels in difference to the previous studies the reaction aliquots were not subjected to methanol /chloroform extraction. Briefly, the samples were separated on Nu-PAGE 12% Bis/Tris/MES/SDS-page gels (Invitrogen) at 150 V for 55 min. For 125-I-C99 assays the gels were dried and exposed for 1–2 hours to europium intensifying screens for autoradiography. […]

[3] = target: T2, γ-secretase carrying presenilin 1 FAD mutation G384A (Homo sapiens, UniProt P49768, G384A); experiment: Inhibition of total AICD production, CHAPSO enriched γ-secretase membranes, FAD mutant G384A; format: biochemical; conditions: for decrease in inhibition potency relative to the WT: G384A vs WT presenilin 1
T2 construct: expressed in transfected cells; host or cells: MEF double knockout for endogenous presenilin, transduced; CHAPSO-solubilised microsomal membranes
Description: as §1, §2
as §4, with “[4]. […]” for “[4].”

[4] = target: γ-secretase (CHAPSO enriched γ-secretase membranes) (not stated (endogenous mouse in MEF, or human presenilin 1 transduced) | mouse (endogenous in MEF)) (UniProt P49768)
patients = tested on: patients; parameters: method as in PMID 21222550; conditions: Phase III clinical trials; cited from earlier work
γ-secretase [5] = experiment: Michaelis-Menten profiles for AICD, Aβ 1–40 and Aβ 1–42 in presence of DAPT; format: biochemical; conditions: enzyme approaching saturation with C99 substrate; DAPT 70-200 nM
Description: Figure 3 Michaelis-Menten profiles for AICD, Aβ 1–40 and Aβ 1–42 in presence of DAPT. CHAPSO enriched γ-secretase membranes were used to measure Michaelis-Menten profiles for total AICD production in presence of 0 nM (•), 70 nM (+) and 150 nM (O) of DAPT. Michaelis-Menten profiles for Aβ 1–40 and Aβ 1–42 production were measured in presence of 0 nM (•), 100 nM (+) and 200 nM (O) of DAPT. All profiles have been analyzed using nonlinear regression and the eqn. 4 (methods). The gel strips show different concentrations of the C99 substrate and the corresponding AICD products. […] AICD was measured using antiflag M2 antibodies (as shown in the gel strip). Aβ 1–40, and Aβ 1–42 were measured using AlphaScreen® as described in methods section.
γ-Secretase assays using CHAPSO enriched membranes were performed essentially as earlier described, [37], [48], [89]. […] This incubation can increase the measured activity by up to 70% since it can accommodate slow reassembly of γ-secretase components that is induced by the transition from 1% CHAPSO to 0.25% CHAPSO [90]. […]
AICD assays using western-blots with anti-flag αM2 monoclonal antibody, or 125-I labelled C99 autoradiography were performed as earlier described, [37]. […] Following the washes with TBS +0.1% Tween 20, the membranes were subjected to 25 nM GAMIR (MolecularProbes), washed, and read using fluorescence at […]. […]

γ-secretase [6] = experiment: γ-Secretase reaction premixed with synthetic Aβ peptides (AICD production, urea gels of Aβ products); format: biochemical; conditions: for effect on the rate of AICD production: extremely high concentrations of synthetic peptide, half-saturating C99 (0.45 µM); for effect on relative difference between Aβ 1–40, Aβ 1–42 and the longer Aβ products: reaction premixed with 10 nM synthetic peptide, urea gels, [C99] = 0.45 µM, 4 hours
Description: Figure 7 γ-Secretase is not affected by Aβ peptides present in free solution. (A) The lanes labeled as “free reaction” represent Aβ products after 4 hours of routine γ-secretase reaction at half saturating C99 substrate ([C99] = 0.45 µM). The lanes labeled as “+10 nM Aβ 1–42” and “+10 nM Aβ 1–40” represent “free reaction” premixed with synthetic Aβ 1–42 or Aβ 1–40 in a concentration equivalent that corresponds to 4 hours of free reaction. The lanes labeled “+21F12” and “+2G6” represent “free reaction” that was premixed with antibodies specific for Aβ42 or Aβ40 respectively. Both 2G6 and 21F12 antibodies bind the matching Aβ peptides very efficiently as indicated by a complete removal of the corresponding Aβ bands in the reactions with protein G beads (samples labeled as “21F12 and prot. G” and “2G6 and prot. G”). The lane “Aβ std 1-x” represents synthetic peptides as mobility standards. (B) AICD production was measured at half-saturating C99 substrate (0.45 µM) in assays that were premixed with increasing concentrations of synthetic Aβ 1–38, Aβ 1–40, Aβ 1–42, or Aβ 1–44.
as §4, §5

[7] = target: γ-secretase (CHAPSO enriched γ-secretase membranes) (not stated (endogenous mouse in MEF, or human presenilin 1 transduced) | mouse (endogenous in MEF)) (UniProt P49768); remark: listed apart in the source
APP C99-3×FLAG (human) = experiment: AlphaScreen or HTRF; increasing fresh C99 incubated 3 h with 10 nM 3D6 antibody coupled to both donor and acceptor beads; signal only if C99 dimerization/oligomerization brings two epitopes together; apparent Kd from a quadratic equation specific for dimerization (dimer to monomers)
γ-secretase [8] = experiment: Titration of γ-secretase activity in CHAPSO enriched membranes with LY-411,575; format: biochemical; conditions: total protein 0.25 mg/ml and 0.09 mg/ml
Description: as §3, with “mg/ml.” for “mg/ml. Fresh C99 substrate that is used immediately after purification gives the best opportunity to observe described enzymatic features and the highest activity.”

γ-secretase [9] = conditions: quoted without reference; read-out: IC50 in cell-based assays; cited from earlier work
[10] = G384A presenilin 1, best fit ± standard error, eqn. 3

Hill's coef. [1]: 1.3±0.1
IC50 [1]: 32 ± 4 nM
Hill's coef. [2]: 0.98± 0.08
IC50 [2]: 707 ± 80 nM
decrease in inhibition potency relative to the WT [2]: 10–20 fold
Hill's coef. [3, 10]: 1±0.13
IC50 ([3]; G384A presenilin 1, total AICD production, western blot, best fit ± standard error, eqn. 3): 398 ± 51 nM
decrease in inhibition potency relative to the WT [3]: 10–20 fold
Molecule: CC(C)C[C@H](NC(=O)[C@H](Cc1ccccc1)C[C@@H](O)[C@H](Cc1ccccc1)NC(=O)OC(C)(C)C)C(=O)N[C@@H](Cc1ccccc1)C(N)=O [L-685,458, {1S-benzyl-4R-[1S-carbamoyl-2-phenylethylcarbamoyl-1S-3-methylbutylcarbamoyl]-2R-hydroxy-5-phenylpentyl} carbamic acid tert-butyl ester]

AICD production from 125-I labeled C99 at half-saturating C99 (0.44-0.45 µM) with increasing NotchΔE substrate: activation, then inhibition only at higher NotchΔE concentrations [4]: 85%
Molecule: NotchΔE substrate (NotchΔE-3xFLAG) (domain or fragment)

Molecule: CC(C)[C@H](O)C(=O)N[C@@H](C)C(=O)N[C@@H]1C(=O)N(C)CCc2ccccc21 [semagacestat]
effect on cognitive decline in patients (patients): can accelerate the cognitive decline

Molecule: C[C@H](NC(=O)Cc1cc(F)cc(F)c1)C(=O)N[C@H](C(=O)OC(C)(C)C)c1ccccc1 [DAPT, N-[N-(3,5-difluorophenacetyl)-L-alanyl]-S-phenylglycine t-butyl ester]
Hill's coef. [1]: 0.7±0.2
IC50 [1]: 390 ± 179 nM
Hill's coef. [2]: 1.21±0.07
IC50 [2]: 734 ± 254 nM
decrease in inhibition potency relative to the WT [2]: approximately twofold
Hill's coef. [3, 10]: 0.54±0.25
decrease in inhibition potency relative to the WT [3]: about 1000 fold
mode of inhibition versus C99 substrate (γ-secretase [5]): noncompetitive inhibitor

effect on the rate of AICD production (γ-secretase [6]): do not affect
Molecule: Aβ 1–44: synthetic Aβ 1-x standard prepared by solid phase synthesis

effect on the rate of AICD production (γ-secretase [6]): do not affect
effect on relative difference between Aβ 1–40, Aβ 1–42 and the longer Aβ products (γ-secretase [6]): does not affect
Molecule: Aβ 1–40: synthetic Aβ 1-x standard prepared by solid phase synthesis

effect on the rate of AICD production (γ-secretase [6]): do not affect
Molecule: Aβ 1–38: synthetic Aβ 1-x standard prepared by solid phase synthesis

Y-axis intercept of the pre-steady-state burst in AICD production (3.0 µM C99, CHAPSO enriched γ-secretase membranes 0.25 mg/ml) [7]: 8.2 nM
Kd (APP C99-3×FLAG (human)): 33 nM
Molecule: APP C99-3×FLAG (domain or fragment)

effect on the rate of AICD production (γ-secretase [6]): do not affect
effect on relative difference between Aβ 1–40, Aβ 1–42 and the longer Aβ products (γ-secretase [6]): does not affect
Molecule: Aβ 1–42: synthetic Aβ 1-x standard prepared by solid phase synthesis

Molecule: C[C@H](NC(=O)[C@@H](O)c1cc(F)cc(F)c1)C(=O)N[C@@H]1C(=O)N(C)c2ccccc2-c2ccccc21 [LY-411,575]
concentration that completely abolishes γ-secretase activity (γ-secretase [8]): 1 to 2 nM
IC50 (γ-secretase [9]): ~0.1 nM
